Reference: patent publication US20090124502A1, “USE OF SULFURYL FLUORIDE AS A SPROUT […]” (Dow AgroSciences LLC, priority 2007, published 2009)

Experiments:
Type in all cases: in vivo, Solanum tuberosum
organic Russet potatoes = experiment: Sulfuryl fluoride fumigation of stored organic Russet potatoes, physical and sprouting observations (Example 3); design: Avg Length of sprouts: unit not given here
Protocol: A third study was conducted using stored organic Russet potatoes. These potatoes were exposed to […] (0 g-h/m3, 50 g-h/m^3, 100 g-h/m^3 150 g-h/m^3 and 200 g-h/m^3) in a Styrofoam™ fumigation chamber. The exposure time was 12 hrs at ambient temperature of approximately 25° C. and relative humidity of 50 percent. The treatments were replicated 3 times. Each replicate had approximately 5 lbs of potatoes.

Red potatoes = experiment: Sulfuryl fluoride fumigation of Red potatoes, physical and sprouting observations (Example 1); design: key to Tuber Firmness: 1 = firm; 2 = slightly spongy; 3 = very spongy, probably rotten
Protocol: (§1) Russet and red potatoes were purchased from an organic retail store and used for this study. These potatoes were exposed to 4 treatments (0 gram-hour/cubic meter [g-h/m^3], 500 g-h/m^3, 1000 g-h/m^3 and 1500 g-h/m^3) in a Styrofoam™ fumigation chamber. The exposure time was 12 hrs at ambient temperature of approximately 25° C. and relative humidity of 50 percent.

Russet potatoes = experiment: Sulfuryl fluoride fumigation of Russet potatoes, physical and sprouting observations (Example 1); design: key to Tuber Firmness: 1 = firm; 2 = slightly spongy; 3 = very spongy, probably rotten
Protocol: as §1

Russet Burbank potatoes = experiment: Sulfuryl fluoride fumigation of stored Russet Burbank potatoes, physical and sprouting observations (Example 2)
Protocol: A second study was conducted using stored Russet Burbank potatoes. These potatoes were exposed to 3 treatments (O g-h/m3, 300 g-h/m^3, and 500 g-h/m^3) in a Styrofoam™ fumigation chamber. The exposure time was 12 hrs at ambient temperature of approximately 25° C. and relative humidity of 50 percent. The treatments were replicated 3 times. Each replicate had approximately 10 lbs of potatoes.

[1] = 50 g-h/m^3, 7 days after exposure
[2] = 50 g-h/m^3, 21 days after exposure
[3] = 50 g-h/m^3, 31 days after exposure
[4] = 100 g-h/m^3, 7 days after exposure
[5] = 100 g-h/m^3, 21 days after exposure
[6] = 100 g-h/m^3, 31 days after exposure
[7] = 150 g-h/m^3, 7 days after exposure
[8] = 150 g-h/m^3, 21 days after exposure
[9] = 150 g-h/m^3, 31 days after exposure
[10] = 200 g-h/m^3, 7 days after exposure
[11] = 200 g-h/m^3, 21 days after exposure
[12] = 200 g-h/m^3, 31 days after exposure
[13] = 500 g-h/m^3, 12 hrs exposure, 1 week after exposure
[14] = 500 g-h/m^3, 12 hrs exposure, 2 weeks after exposure
[15] = 500 g-h/m^3, 12 hrs exposure, 3 weeks after exposure
[16] = 500 g-h/m^3, 12 hrs exposure, 10 weeks after exposure
[17] = 1000 g-h/m^3, 12 hrs exposure, 1 week after exposure
[18] = 1000 g-h/m^3, 12 hrs exposure, 2 weeks after exposure
[19] = 1500 g-h/m^3, 12 hrs exposure, 1 week after exposure
[20] = 1500 g-h/m^3, 12 hrs exposure, 2 weeks after exposure
[21] = 300 g-h/m^3, 6 days after exposure, mean of 3 plots
[22] = 300 g-h/m^3, 6 days after exposure, single plots (replicates)
[23] = 300 g-h/m^3, 9 days after exposure, mean
[24] = 500 g-h/m^3, 6 days after exposure, mean of 3 plots
[25] = 500 g-h/m^3, 6 days after exposure, single plots (replicates)
[26] = 500 g-h/m^3, 9 days after exposure, mean

O=S(=O)(F)F [sulfuryl fluoride]
sprout growth (organic Russet potatoes; 50 g-h/m^3, 21 DAT, compared to 150 and 200 g-h/m^3 treatments): significant sprout growth
Avg Length of sprouts (organic Russet potatoes; [1]): 1.1
Avg. Number of sprouts (organic Russet potatoes; [1]): 3.00
Number of Sprouts (organic Russet potatoes; [1]): 60.0
Tuber Firmness (organic Russet potatoes; [1]): 0.0 MM
Avg Length of sprouts (organic Russet potatoes; [2]): 9.1
Avg. Number of sprouts (organic Russet potatoes; [2]): 6.3
Number of Sprouts (organic Russet potatoes; [2]): 126.0
Tuber Firmness (organic Russet potatoes; [2]): 1.0 MM
Avg Length of sprouts (organic Russet potatoes; [3]): 21.1
Avg. Number of sprouts (organic Russet potatoes; [3]): 6.3
Number of Sprouts (organic Russet potatoes; [3]): 126.0
Tuber Firmness (organic Russet potatoes; [3]): 2.0 MM
sprout inhibition (organic Russet potatoes; 50 to 200 g-h/m^3, Table 13 (21 days after exposure)): dose dependent
sprout growth (organic Russet potatoes; 100 g-h/m^3, 21 DAT, compared to 150 and 200 g-h/m^3 treatments): significant sprout growth
Avg Length of sprouts (organic Russet potatoes; [4]): 1.0
Avg. Number of sprouts (organic Russet potatoes; [4]): 1.9
Number of Sprouts (organic Russet potatoes; [4]): 52.0
Tuber Firmness (organic Russet potatoes; [4]): 0.0 MM
Avg Length of sprouts (organic Russet potatoes; [5]): 6.5
Avg. Number of sprouts (organic Russet potatoes; [5]): 2.4
Number of Sprouts (organic Russet potatoes; [5]): 88.0
Tuber Firmness (organic Russet potatoes; [5]): 1.0 MM
Avg Length of sprouts (organic Russet potatoes; [6]): 16.5
Avg. Number of sprouts (organic Russet potatoes; [6]): 2.4
Number of Sprouts (organic Russet potatoes; [6]): 88.0
Tuber Firmness (organic Russet potatoes; [6]): 1.0 MM
sprout growth (organic Russet potatoes; 150 g-h/m^3, 7 DAT): slight sprout growth
sprout growth (organic Russet potatoes; 150 g-h/m^3, 21 DAT observations): did not grow further
Avg Length of sprouts (organic Russet potatoes; [7]): 0.2
Avg. Number of sprouts (organic Russet potatoes; [7]): 0.3
Number of Sprouts (organic Russet potatoes; [7]): 17.0
Tuber Firmness (organic Russet potatoes; [7]): 0.0 MM
Avg Length of sprouts (organic Russet potatoes; [8]): 0.2
Avg. Number of sprouts (organic Russet potatoes; [8]): 0.3
Number of Sprouts (organic Russet potatoes; [8]): 17.0
Tuber Firmness (organic Russet potatoes; [8]): 0.0 MM
Avg Length of sprouts (organic Russet potatoes; [9]): 1.2
Avg. Number of sprouts (organic Russet potatoes; [9]): 0.3
Number of Sprouts (organic Russet potatoes; [9]): 17.0
Tuber Firmness (organic Russet potatoes; [9]): 0.0 MM
Avg Length of sprouts (organic Russet potatoes; [10]): 0
Avg. Number of sprouts (organic Russet potatoes; [10]): 0
Number of Sprouts (organic Russet potatoes; [10]): 0
Tuber Firmness (organic Russet potatoes; [10]): 0.0 MM
Avg Length of sprouts (organic Russet potatoes; [11]): 0
Avg. Number of sprouts (organic Russet potatoes; [11]): 0
Number of Sprouts (organic Russet potatoes; [11]): 0
Tuber Firmness (organic Russet potatoes; [11]): 0.0 MM
Avg Length of sprouts (organic Russet potatoes; [12]): 0
Avg. Number of sprouts (organic Russet potatoes; [12]): 0
Number of Sprouts (organic Russet potatoes; [12]): 0
Tuber Firmness (organic Russet potatoes; [12]): 0.0 MM
phyto-toxic effects (organic Russet potatoes; 200 g-h/m^3, after 31 days): without any phyto-toxic effects
sprout inhibition (organic Russet potatoes; 200 g-h/m^3, after 31 days): best sprout inhibition
peel testing, black spot (organic Russet potatoes; all treatments of the study (50 to 200 g-h/m^3)): none of the treatments used in this study produced the black spot
Average length of sprout (Red potatoes; [13]): 0 mm
Avg. No. of Sprouts (Red potatoes; [13]): 0
Tuber Firmness (Red potatoes; [13]): 1
Average length of sprout (Red potatoes; [14]): 0 mm
Avg. No. of Sprouts (Red potatoes; [14]): 0
Tuber Firmness (Red potatoes; [14]): 1
Avg. No. of Sprouts (Red potatoes; [15]): 1.5
Tuber Firmness (Red potatoes; [15]): 1
Avg. No. of Sprouts (Red potatoes; [16]): 1.5
Tuber Firmness (Red potatoes; [16]): 1
Average length of sprout (Red potatoes; [17]): 0 mm
Avg. No. of Sprouts (Red potatoes; [17]): 0
Tuber Firmness (Red potatoes; [17]): 2
Average length of sprout (Red potatoes; [18]): 0 mm
Avg. No. of Sprouts (Red potatoes; [18]): 0
Tuber Firmness (Red potatoes; [18]): 2
Average length of sprout (Red potatoes; [19]): 0 mm
Avg. No. of Sprouts (Red potatoes; [19]): 0
Tuber Firmness (Red potatoes; [19]): 3
Average length of sprout (Red potatoes; [20]): 0 mm
Avg. No. of Sprouts (Red potatoes; [20]): 0
Tuber Firmness (Red potatoes; [20]): 3
Average length of sprout (Russet potatoes; [13]): <1 mm
Avg. No. of Sprouts (Russet potatoes; [13]): 1.4
Tuber Firmness (Russet potatoes; [13]): 1
Average length of sprout (Russet potatoes; [14]): <1 mm
Avg. No. of Sprouts (Russet potatoes; [14]): 1.4
Tuber Firmness (Russet potatoes; [14]): 1
Average length of sprout (Russet potatoes; [15]): <3 mm
Avg. No. of Sprouts (Russet potatoes; [15]): 1.4
Tuber Firmness (Russet potatoes; [15]): 2
Average length of sprout (Russet potatoes; [17]): <1 mm
Avg. No. of Sprouts (Russet potatoes; [17]): 0.3
Tuber Firmness (Russet potatoes; [17]): 1
Average length of sprout (Russet potatoes; [18]): <1 mm
Avg. No. of Sprouts (Russet potatoes; [18]): 0.3
Tuber Firmness (Russet potatoes; [18]): 1
Average length of sprout (Russet potatoes; [19]): 0 mm
Avg. No. of Sprouts (Russet potatoes; [19]): 0
Tuber Firmness (Russet potatoes; [19]): 3
Average length of sprout (Russet potatoes; [20]): 0 mm
Avg. No. of Sprouts (Russet potatoes; [20]): 0
Tuber Firmness (Russet potatoes; [20]): 3
Avg Length of sprouts (Russet Burbank potatoes; [21]): 0.0 b MM
Tuber Firmness (Russet Burbank potatoes; [21]): 0.0 a 0-3
Avg Length of sprouts (Russet Burbank potatoes; [22]): 0.0 MM
Avg. Number of sprouts (Russet Burbank potatoes; [22]): 0.00
Tuber Firmness (Russet Burbank potatoes; [22]): 0.0 0-3
Number of Sprouts (Russet Burbank potatoes; 300 g-h/m^3, 6 days after exposure, single plots (replicates), 10 pounds): 0.0
Avg Length of sprouts (Russet Burbank potatoes; [23]): 0.0 b
Avg. Number of sprouts (Russet Burbank potatoes; [23]): 0.00 b
Number of Sprouts (Russet Burbank potatoes; [23]): 0.0 b
sprout growth (Russet Burbank potatoes; 300 g-h/m^3 and 500 g-h/m^3 treatments, Table 10 and 11 (6 and 9 days after exposure)): stopped sprouts from growing
Avg Length of sprouts (Russet Burbank potatoes; [24]): 0.0 b MM
Tuber Firmness (Russet Burbank potatoes; [24]): 0.0 a 0-3
Avg Length of sprouts (Russet Burbank potatoes; [25]): 0.0 MM
Avg. Number of sprouts (Russet Burbank potatoes; [25]): 0.00
Tuber Firmness (Russet Burbank potatoes; [25]): 0.0 0-3
Number of Sprouts (Russet Burbank potatoes; 500 g-h/m^3, 6 days after exposure, single plots (replicates), 10 pounds): 0.0
Avg Length of sprouts (Russet Burbank potatoes; [26]): 0.0 b
Avg. Number of sprouts (Russet Burbank potatoes; [26]): 0.00 b
Number of Sprouts (Russet Burbank potatoes; [26]): 0.0 b
